According to patent US20050060764A1, “Mouse model for bone metabolism” (priority 2003, published 2005):
Strand notation (5' to 3'): a small letter for the sugar, then the base; units joined by * are phosphorothioate-linked, units joined directly phosphodiester-linked; [ ] holds rarer units or linkages, { } end groups; capitals alone tell only the bases. e = 2'-O-(2-methoxyethyl) (MOE); [5mC] = 5-methylcytosine; d = 2'-deoxy (DNA)

Tests used:
mouse RANKL mRNA [1] = test: Antisense inhibition of mouse RANKL mRNA in C2C12 cells: dose response (Table 5); type: cell-based; settings: relative to untreated control
Description: (§1) Cells were seeded into 24-well plates (Falcon-353047 at a density of ˜10,000 cells/cm^2 for use in antisense oligonucleotide transfection.
(§2) Cells are treated and data are obtained in triplicate. […] Cells were harvested 16-24 hours after oligonucleotide treatment.
(§3) Probes and primers to mouse RANKL were designed to hybridize to a mouse RANKL sequence, using published sequence information (GenBank accession number AF013170.1, incorporated herein as SEQ ID NO:ll). For mouse RANKL the PCR primers were: • forward primer: […] (SEQ ID NO:12) • reverse primer: […] (SEQ ID NO: 13) and • the PCR probe was: FAM-[…]-TAMRA (SEQ ID NO: 14) where FAM is the fluorescent reporter dye and TAMRA is the quencher dye. For mouse GAPDH the PCR primers were: • forward primer: […](SEQ ID NO:15) • reverse primer: […](SEQ ID NO:16) and the • PCR probe was: 5′ JOE-[…]-TAMRA 3′ (SEQ ID NO: 17) where JOE is the fluorescent reporter dye and TAMRA is the quencher dye.
In accordance with the present invention, a subset of the antisense oligonucleotides in Example 16 was further investigated in dose-response studies. The oligonucleotides used in this investigation were ISIS 180812 (SEQ ID NO: 178), ISIS 180814 (SEQ ID NO: 180), ISIS 180819 (SEQ ID NO: 185), ISIS 180828 (SEQ ID NO: 194) and the control oligonucleotide ISIS 101757 ([…], SEQ ID NO: 355). […] All cytidine residues are 5-methylcytidines.
C2C12 cells were treated with the oligonucleotides at 10, 50, 75, 100, and 150 nM as described in other examples herein. […] The results are expressed as percent inhibition relative to the untreated control. The data, shown in Table 5, are averages from two experiments and illustrate the oligonucleotides of the present invention are able to downregulate RANKL mRNA expression in a dose-dependent manner.

mouse RANKL mRNA [2] = test: Antisense inhibition of mouse RANKL mRNA levels in C2C12 cells, quantitative real-time PCR (Table 2); type: cell-based; design: concentration or dose not given beside the values; settings: averages from three experiments
Description: as §1, §2
PCR reagents were obtained from Invitrogen Corporation, (Carlsbad, Calif.).
as §3
In accordance with the present invention, a second series of antisense compounds was designed to target different regions of the mouse RANKL RNA, using published sequences (GenBank accession number AF013170.1, incorporated herein as SEQ ID NO: 11). […] All cytidine residues are 5-methylcytidines. […] If present “N.D.” indicates “no data”.

rat RANKL mRNA = test: Antisense inhibition of rat RANKL mRNA levels in UMR-106 cells, quantitative real-time PCR (Table 3); type: cell-based; design: concentration or dose not given beside the values; settings: averages from three experiments
Method in brief: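 UMR-106 cells transfected with antisense oligonucleotides (5-methylcytidine throughout) in triplicate, harvested 16-24 h after treatment. RANKL mRNA quantified by real-time RT-PCR with a FAM/TAMRA probe, using rat GAPDH (JOE/TAMRA probe) as the reference.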

[3] = Serum calcium concentration 24 hours after PTH infusion in mice treated with RANKL antisense oligonucleotides (Table 10); type: in vivo, mouse; settings: mice
Description: In accordance with the present invention, the effect of antisense oligonucleotide inhibition on PTH-induced serum calcium concentration increase was measured in mice. The serum calcium concentration in mice was measured as a function of antisense oligonucleotide dose. Calcitonin, a known bone antiresorptive agent, was used as a control for antiresorptive activity.
Female Swiss-Webster (5-8 wks old) mice fed a low-calcium diet were dosed subcutaneously for two weeks with either the oligonucleotides ISIS 180819 (SEQ ID NO: 185) or 180814 (SEQ ID NO: 180) at concentrations of 5 mg/kg, 15 mg/kg, 30 mg/kg, or 40 mg/kg. A control group of mice were treated with calcitonin (400 ng) plus PTH (1 ug/100 g/6 hr), PTH alone (1 ug/100 g/6 hr) or saline. Treatment with oligonucleotides was followed with infusion of PTH by subcutaneously implanted mini-pumps at a dose of 1 ug/100 g/6 hr. After 24 hours of PTH infusion (total PTH delivery of 4 ug/100 g), the mice were sacrificed and the serum calcium concentration was measured with the Sigma Diagnostics Calcium Kit (Sigma-Aldrich). The data, summarized in Table 10 are averages from eight mice. Percent mRNA inhibition is normalized to PTH alone treatment.

101757 (antisense eA*eG*eG*eT*eG*d[5mC]*dT*d[5mC]*dA*dG*dG*dA*d[5mC]*dT*d[5mC]*e[5mC]*eA*eT*eT*eT) [compound 101757]
% Inhibition of RANKL mRNA (mouse RANKL mRNA [1]; 50 nM oligonucleotide): 17% | % Inhibition of RANKL mRNA (mouse RANKL mRNA [1]; 100 nM oligonucleotide): 13%

180802 (antisense eG*e[5mC]*eT*e[5mC]*eG*dA*dA*dA*dG*dT*dA*d[5mC]*dA*dG*dG*eA*eA*e[5mC]*eA*eG) [compound 180802]
% INHIB (inhibition of mouse RANKL mRNA levels) (mouse RANKL mRNA [2]): 79% | % INHIB (inhibition of rat RANKL mRNA levels) (rat RANKL mRNA): 40%

180807 (antisense eA*eG*e[5mC]*eA*eA*dA*dT*dG*dT*dT*dG*dG*d[5mC]*dG*dT*eA*e[5mC]*eA*eG*eG) [compound 180807]
% INHIB (inhibition of mouse RANKL mRNA levels) (mouse RANKL mRNA [2]): 74% | % INHIB (inhibition of rat RANKL mRNA levels) (rat RANKL mRNA): 48%

180809 (antisense eG*eG*eA*eT*eT*dT*dT*dG*dA*dT*dG*d[5mC]*dT*dG*dG*eT*eT*eT*eT*eA) [compound 180809]
% INHIB (inhibition of mouse RANKL mRNA levels) (mouse RANKL mRNA [2]): 53% | % INHIB (inhibition of rat RANKL mRNA levels) (rat RANKL mRNA): 57%

180812 (antisense eT*e[5mC]*e[5mC]*eG*eG*dA*dT*d[5mC]*d[5mC]*dA*dG*d[5mC]*dA*dG*dG*eG*eA*eA*eG*eG) [compound 180812]
% INHIB (inhibition of mouse RANKL mRNA levels) (mouse RANKL mRNA [2]): 47% | % Inhibition of RANKL mRNA (mouse RANKL mRNA [1]; 10 nM oligonucleotide): 0% | % Inhibition of RANKL mRNA (mouse RANKL mRNA [1]; 50 nM oligonucleotide): 5% | % Inhibition of RANKL mRNA (mouse RANKL mRNA [1]; 75 nM oligonucleotide): 13% | % Inhibition of RANKL mRNA (mouse RANKL mRNA [1]; 100 nM oligonucleotide): 20% | % Inhibition of RANKL mRNA (mouse RANKL mRNA [1]; 150 nM oligonucleotide): 45%

180814 (antisense eG*eT*e[5mC]*eT*eT*dA*d[5mC]*dA*d[5mC]*dA*dT*dG*dT*dA*dT*eA*eG*eA*e[5mC]*eA) [compound 180814]
% INHIB (inhibition of mouse RANKL mRNA levels) (mouse RANKL mRNA [2]): 66% | % Inhibition of RANKL mRNA (mouse RANKL mRNA [1]; 10 nM oligonucleotide): 12% | % Inhibition of RANKL mRNA (mouse RANKL mRNA [1]; 50 nM oligonucleotide): 14% | % Inhibition of RANKL mRNA (mouse RANKL mRNA [1]; 75 nM oligonucleotide): 61% | % Inhibition of RANKL mRNA (mouse RANKL mRNA [1]; 100 nM oligonucleotide): 70% | % Inhibition of RANKL mRNA (mouse RANKL mRNA [1]; 150 nM oligonucleotide): 81% | PTH-induced increase in serum calcium concentration ([3]; s.c. two weeks 5, 15, 30 or 40 mg/kg, 24 hours PTH infusion): lessen the PTH-induced increase in serum calcium concentration

180828 (antisense eT*eT*eT*eA*eT*dT*dT*dT*dG*d[5mC]*dT*dT*dG*d[5mC]*dA*eT*eA*eG*eT*eT) [compound 180828]
% INHIB (inhibition of mouse RANKL mRNA levels) (mouse RANKL mRNA [2]): 44% | % Inhibition of RANKL mRNA (mouse RANKL mRNA [1]; 10 nM oligonucleotide): 31% | % Inhibition of RANKL mRNA (mouse RANKL mRNA [1]; 50 nM oligonucleotide): 43% | % Inhibition of RANKL mRNA (mouse RANKL mRNA [1]; 75 nM oligonucleotide): 23% | % Inhibition of RANKL mRNA (mouse RANKL mRNA [1]; 100 nM oligonucleotide): 31% | % Inhibition of RANKL mRNA (mouse RANKL mRNA [1]; 150 nM oligonucleotide): 40%

agcaaatgttggcgtacagg (antisense eA*eG*e[5mC]*eA*eA*dA*dT*dG*dT*dT*dG*dG*d[5mC]*dG*dT*eA*e[5mC]*eA*eG*eG) [ISIS 180807, 2′-MOE gapmer targeted to mouse and rat RANKL]
% INHIB (inhibition of mouse RANKL mRNA levels) (mouse RANKL mRNA [2]): at least 40% | % INHIB (inhibition of rat RANKL mRNA levels) (rat RANKL mRNA): at least 40%

calcitonin [reference compound]
inhibition of PTH-induced serum calcium concentration ([3]; PTH infusion, n=8): 66 % inhibition

gctcgaaagtacaggaacag (antisense eG*e[5mC]*eT*e[5mC]*eG*dA*dA*dA*dG*dT*dA*d[5mC]*dA*dG*dG*eA*eA*e[5mC]*eA*eG) [ISIS 180802, 2′-MOE gapmer targeted to mouse and rat RANKL]
% INHIB (inhibition of mouse RANKL mRNA levels) (mouse RANKL mRNA [2]): at least 40% | % INHIB (inhibition of rat RANKL mRNA levels) (rat RANKL mRNA): at least 40%

gctggcccggcgcatggcgc (antisense eG*e[5mC]*eT*eG*eG*d[5mC]*d[5mC]*d[5mC]*dG*dG*d[5mC]*dG*d[5mC]*dA*dT*eG*eG*e[5mC]*eG*e[5mC]) [ISIS 180795, 2′-MOE gapmer targeted to mouse RANKL]
% INHIB (inhibition of mouse RANKL mRNA levels) (mouse RANKL mRNA [2]): at least 40%

ggattttgatgctggtttta (antisense eG*eG*eA*eT*eT*dT*dT*dG*dA*dT*dG*d[5mC]*dT*dG*dG*eT*eT*eT*eT*eA) [ISIS 180809, 2′-MOE gapmer targeted to mouse and rat RANKL]
% INHIB (inhibition of mouse RANKL mRNA levels) (mouse RANKL mRNA [2]): at least 40% | % INHIB (inhibition of rat RANKL mRNA levels) (rat RANKL mRNA): at least 40%

ggcttgcctcgctgggccac (antisense eG*eG*e[5mC]*eT*eT*dG*d[5mC]*d[5mC]*dT*d[5mC]*dG*d[5mC]*dT*dG*dG*eG*e[5mC]*e[5mC]*eA*e[5mC]) [ISIS 180805, 2′-MOE gapmer targeted to mouse RANKL]
% INHIB (inhibition of mouse RANKL mRNA levels) (mouse RANKL mRNA [2]): at least 40%

gttcacaaaggtcctggcag (antisense eG*eT*eT*e[5mC]*eA*d[5mC]*dA*dA*dA*dG*dG*dT*d[5mC]*d[5mC]*dT*eG*eG*e[5mC]*eA*eG) [ISIS 180788, 2′-MOE gapmer targeted to mouse RANKL]
% INHIB (inhibition of mouse RANKL mRNA levels) (mouse RANKL mRNA [2]): at least 40%

tcagaattgcccgaccagtt (antisense eT*e[5mC]*eA*eG*eA*dA*dT*dT*dG*d[5mC]*d[5mC]*d[5mC]*dG*dA*d[5mC]*e[5mC]*eA*eG*eT*eT) [ISIS 180810, 2′-MOE gapmer targeted to mouse RANKL]
% INHIB (inhibition of mouse RANKL mRNA levels) (mouse RANKL mRNA [2]): at least 40%

tcagtggcacatgtccaggg (antisense eT*e[5mC]*eA*eG*eT*dG*dG*d[5mC]*dA*d[5mC]*dA*dT*dG*dT*d[5mC]*e[5mC]*eA*eG*eG*eG) [ISIS 180818, 2′-MOE gapmer targeted to mouse RANKL]
% INHIB (inhibition of mouse RANKL mRNA levels) (mouse RANKL mRNA [2]): at least 40%

tccggatccagcagggaagg (antisense eT*e[5mC]*e[5mC]*eG*eG*dA*dT*d[5mC]*d[5mC]*dA*dG*d[5mC]*dA*dG*dG*eG*eA*eA*eG*eG) [ISIS 180812, 2′-MOE gapmer targeted to mouse RANKL]
% INHIB (inhibition of mouse RANKL mRNA levels) (mouse RANKL mRNA [2]): at least 40%

tcggctggcccggcgcatgg (antisense eT*e[5mC]*eG*eG*e[5mC]*dT*dG*dG*d[5mC]*d[5mC]*d[5mC]*dG*dG*d[5mC]*dG*e[5mC]*eA*eT*eG*eG) [ISIS 180796, 2′-MOE gapmer targeted to mouse RANKL]
% INHIB (inhibition of mouse RANKL mRNA levels) (mouse RANKL mRNA [2]): at least 40%

tctcggctggcccggcgcat (antisense eT*e[5mC]*eT*e[5mC]*eG*dG*d[5mC]*dT*dG*dG*d[5mC]*d[5mC]*d[5mC]*dG*dG*e[5mC]*eG*e[5mC]*eA*eT) [ISIS 180797, 2′-MOE gapmer targeted to mouse RANKL]
% INHIB (inhibition of mouse RANKL mRNA levels) (mouse RANKL mRNA [2]): at least 40%

tcttcactctccagagtcga (antisense eT*e[5mC]*eT*eT*e[5mC]*dA*d[5mC]*dT*d[5mC]*dT*d[5mC]*d[5mC]*dA*dG*dA*eG*eT*e[5mC]*eG*eA) [ISIS 180803, 2′-MOE gapmer targeted to mouse RANKL]
% INHIB (inhibition of mouse RANKL mRNA levels) (mouse RANKL mRNA [2]): at least 40%

tgctccgcgatcgttctctc (antisense eT*eG*e[5mC]*eT*e[5mC]*d[5mC]*dG*d[5mC]*dG*dA*dT*d[5mC]*dG*dT*dT*e[5mC]*eT*e[5mC]*eT*e[5mC]) [ISIS 180792, 2′-MOE gapmer targeted to mouse RANKL]
% INHIB (inhibition of mouse RANKL mRNA levels) (mouse RANKL mRNA [2]): at least 40%

tttattttgcttgcatagtt (antisense eT*eT*eT*eA*eT*dT*dT*dT*dG*d[5mC]*dT*dT*dG*d[5mC]*dA*eT*eA*eG*eT*eT) [ISIS 180828, 2′-MOE gapmer targeted to mouse RANKL]
% INHIB (inhibition of mouse RANKL mRNA levels) (mouse RANKL mRNA [2]): at least 40%
